The values that follow come from patent EP0298466A2, “Substituted alkene carboxylic acid amides and derivatives” (F. HOFFMANN-LA ROCHE AG, priority 1987, dated 1989).

Assay [1] deals with T1, Thromboxane Synthase (TXA₂ syn.) (Homo sapiens, UniProt P24557).
T1 construct: using microsomal fractions from human platelets as enzyme source; from tissue; host or cells: microsomal fraction of human platelets
T1 sequence (P24557 1-533): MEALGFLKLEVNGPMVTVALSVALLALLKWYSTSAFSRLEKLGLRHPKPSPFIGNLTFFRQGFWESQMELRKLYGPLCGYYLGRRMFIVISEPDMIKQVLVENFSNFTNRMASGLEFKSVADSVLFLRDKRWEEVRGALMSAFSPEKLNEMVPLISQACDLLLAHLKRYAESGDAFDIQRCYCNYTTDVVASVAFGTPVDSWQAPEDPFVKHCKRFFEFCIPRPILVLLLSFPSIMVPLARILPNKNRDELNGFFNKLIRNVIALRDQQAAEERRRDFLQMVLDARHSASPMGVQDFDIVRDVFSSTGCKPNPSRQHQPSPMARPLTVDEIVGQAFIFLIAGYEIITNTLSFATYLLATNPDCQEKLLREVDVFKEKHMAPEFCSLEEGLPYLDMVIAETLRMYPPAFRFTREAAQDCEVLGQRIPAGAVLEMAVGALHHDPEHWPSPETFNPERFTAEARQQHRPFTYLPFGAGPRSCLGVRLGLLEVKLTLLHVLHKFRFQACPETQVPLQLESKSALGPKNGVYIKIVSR
In words: TXA₂ Synthesis Inhibition (microsomal fractions from human platelets). In kind it is biochemical. The conditions noted are these: human platelet microsomes, ¹⁴C-PGH₂ 10µM, 22° for 2 minutes; read-out: Inhibition of TXA₂ Synthetase IC₅₀. Here is the method: Thromboxane Synthase (TXA₂ syn.) inhibitory activity is measured by following the conversion of […] using microsomal fractions from human platelets as enzyme source. In the aqueous incubation medium, the TXA₂ decomposes rapidly into TXB₂. The amount of TXA₂ syn, is adjusted so that under the conditions of the assay approximately 80-90% of the substrate, PGH₂, is converted to product in control tubes. To prepare ¹⁴C-PGH₂, ¹⁴C-AA(50-60mCi/mmole) is incubated with sheep seminal vesicular gland microsomes for 1.5 min, at 37° and then the ¹⁴C-PGH₂ is extracted with diethylether, purified on columns of Sephadex LH-20 or silicic acid, and stored in acetone at -70°C. Incubations are done as follows, Sufficient ¹⁴C-PGH₂ to yield a final substrate concentration of 10µM (about 30,000 cpm) is added to the incubation tubes and then the acetone is removed under nitrogen. The tubes are placed in an ice bath and then 215 µl of ice cold phosphate buffered saline, 10 µl of ethanol (control) or of test drug in ethanol and 25 µl of the microsomal suspension are added with mixing in that order as rapidly as possible. The tubes are incubated at 22° for 2 minutes, the reaction is stopped and then the radioactive products and the unconverted PGH₂ are extracted and analyzed by thin layer chromatography. The amount of ¹⁴C-PGH₂ converted to products is analyzed by thin layer chromatography. The amount of ¹⁴C-PGH₂ converted to products was used as a measure of TXA₂ synthase activity. Inhibitors were tested initially at a concentration of 100 µM. IC₅₀ values were calculated by linear regression analysis of successive 10 fold dilutions of the test compound concentration.

Assay [2] relates to PAF Induced Bronchoconstriction. In words: PAF Induced Bronchoconstriction Assay. It is filed as in vivo, guinea pigs. The conditions noted are these: Cavia porcellus; 1mg/Kg iv, 1 minute pretreatment, guinea pig, PAF challenge 1.0µg/kg intravenous; percent inhibition, spread = standard error of the mean. Here is the method:
Male guinea pigs (Hartley Strain, 400-500 g) were anesthetized with urethane (2 g/kg, i.p.). Each animals' trachea was cannulated and the guinea pigs were respirated using a Harvard small animal rodent respirator (3.0 cc stroke volume, 40 breaths per min.). Tracheal pressure was recorded from a cannula inserted in the trachea and connected to a Statham pressure Transducer.
The jugular vein was cannulated for administering compounds. Spontaneous breathing was arrested with succinylcholine (1.2 mg/kg, i.v.) administered 2 minutes prior to intravenous injection of platelet activating factor (PAF).
For the intravenous testing, the guinea pig is given a 5-minute pretreatment with propranolol at a dose of 0.1 mg/kg intravenously. The test compound is administered with a 1 minute pretreatment prior to intravenous challenge with PAF. The animal is then challenged with a 1.0µg/kg intravenous dose of PAF and the change in tracheal pressure is measured.
The change in tracheal pressure is determined by subtracting the steady state baseline achieved after administration of succinylcholine from the peak bronchoconstriction seen after challenge with PAF. The mean is calculated for each test compound and compared to the mean of the control animals to give the percent inhibition of bronchoconstriction. The standard error is calculated as the standard error of the mean.

For assay [3], the target named is T2, PAF Binding (Canis lupus familiaris, UniProt A0A8I3NSH0).
T2 construct: from tissue; host or cells: washed platelets from dog blood
T2 sequence (A0A8I3NSH0 1-343): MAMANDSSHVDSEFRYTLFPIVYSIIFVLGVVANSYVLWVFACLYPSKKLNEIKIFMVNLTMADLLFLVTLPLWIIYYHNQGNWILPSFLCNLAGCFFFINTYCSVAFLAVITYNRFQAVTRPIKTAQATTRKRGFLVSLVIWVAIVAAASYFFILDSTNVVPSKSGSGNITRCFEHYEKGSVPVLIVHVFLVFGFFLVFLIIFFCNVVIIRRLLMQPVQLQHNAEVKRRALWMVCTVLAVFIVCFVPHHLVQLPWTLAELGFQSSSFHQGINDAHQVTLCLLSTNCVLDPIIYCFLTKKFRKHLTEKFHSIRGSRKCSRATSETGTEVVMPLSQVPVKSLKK
The experiment in a line: PAF binding assay (³H-PAF, dog platelets). Conditions: washed dog platelets (2 x 10⁷ platelets), 10 minutes at room temperature, read-out: Inhibition of PAF Binding IC₅₀. Here is the method: The binding assay was done in 400 µl polyethylene microcentrifuge tubes (Beckman) containing 50 µl of an oil mixture of 2 parts of Siliconol AR200 (Serva) and 1 part of Silicone Fluid (Arthur H. Thomas). Buffer, standards, or analogs (150 µl total volume) were added to the tubes. Radiolabelled ³H-PAF (50 µl) was then added to the tubes. The reaction was started by the addition of 50 µl of dog platelets (2 x 10⁷ platelets). The tubes were capped, inverted several times to mix, and incubated for 10 minutes at room temperature. The platelets were separated from the incubation mixture by centrifuging 1 minute in a Beckman Microfuge B centrifuge. The tip of the tubes were cut off, and the platelets were washed out of the tips with 200 µl of 50% methanol (Burdick and Jackson). Aquasol (NEN, 10 ml) was added and the radioactivity in the samples was determined using an LS 8100 Beckman liquid scintillation counter linked to a Techtran tape recorder. Data was processed through an in-house computer system. Alternatively, radioactivity was determined using a Searle Mark III liquid scintillation counter linked to a Iso-Data microprocessor.
Blood was collected from anesthesized or unanesthesized dogs into 50 ml plastic centrifuge tubes containing 3.8% sodium citrate as the anticoagulant (1 volume of citrate/9 volumes of blood). The red cells were removed by centrifugation for 15 minutes at 600 rpm (100-125 g) at room temperature. An aliquot of the supernatant platelet rich plasma (PRP) was saved for cell counting and the remainder was acidified to pH 6.5 with 0.15 M citric acid. The platelet pellet was obtained after a 10 minute centrifugation at 2000 rpm (1000 g) at room temperature. Washed platelets were prepared by resuspending the platelet pellet once with PBS containing 1 mM of EDTA, centrifuging as noted, and then resuspending the platelets in 0.1% of BSA/PBS. An aliquot of the washed platelets was counted. Platelets used for binding assays were diluted to 2 x 10⁷ platelets/assay tube (4 x 10⁸ platelets/ml). Platelet counting was done using a Royco Cell-Crit 921.

For `O=C(CCCCCCC=C(c1ccccc1)c1ccccc1)NCCCCc1cccnc1` [9,9-Diphenyl-N-[4-(3-pyridinyl)butyl]-8-nonenamide], in assay [1], the IC50 lay within 10 to 100 nM.

`CCCCc1c(/C=C/C(=O)N[C@H](C)CCCc2cccnc2)cc(OC)c2ccccc12` [[R-(E)]-3-(1-Butyl-4-methoxy-2-naphthalenyl)-N-[1-methyl-4-(3-pyridinyl)butyl]-2-propenamide]: in assay [2], the inhibition in vivo at 1 mg/kg was determined as 90%. In assay [3], the IC50 was found to be 1 nM.

For the compound `CCCCCc1c(/C=C/C(=O)N[C@H](C)CCCc2cccnc2)sc2cc(OC)ccc12` [[R-(E)]-3-(6-Methoxy-3-pentylbenzo-[b]thien-2-yl)-N-[1-methyl-4-(3-pyridinyl)butyl]-2-propenamide], the inhibition in vivo at 1 mg/kg in assay [2] is 98%. Besides, the IC50 in assay [3] is 24 nM.

For the compound `COc1ccc(C2=C(/C=C/C(=O)N[C@H](C)CCCc3cccnc3)CCc3cc(OC)ccc32)cc1` [[R-(E)]-3-[3,4-Dihydro-6-methoxy-1-(4-methoxyphenyl)-2-naphthalenyl]-N-[1-methyl-4-(3-pyridinyl)butyl]-2-propenamide], the inhibition in vivo at 1 mg/kg in assay [2] was 95 ± 2%. Further, the IC50 in assay [3] turned out to be 30 nM.

For `CCCCCc1c(/C=C/C(=O)N[C@H](C)CCCc2cccnc2)oc2cc(OC)ccc12` [[R-(E)]-3-(6-Methoxy-3-pentylbenzofuran-2-yl)-N-[1-methyl-4-(3-pyridinyl)butyl]-2-propenamide], the inhibition in vivo at 1 mg/kg in assay [2] turned out to be 89%.

Regarding `O=C(CCCCC=C(c1ccccc1)c1ccccc1)NCCCCc1cccnc1` [7,7-Diphenyl-N-[4-(3-pyridinyl)butyl]-6-heptenamide], the IC50 in assay [1] was in the range of 100 to 10000 nM.

As for `CCCCc1c(/C=C/C(=O)N[C@H](C)CCCc2cccnc2)ccc2ccc(OC)cc12` [[R-(E)]-3-(1-Butyl-7-methoxy-2-naphthalenyl)-N-[1-methyl-4-(3-pyridinyl)butyl]-2-propenamide], the IC50 in assay [3] worked out at 15 nM.

With `CCCCCC1=C(/C=C/C(=O)N[C@H](C)CCCc2cccnc2)Cc2cc(OC)ccc21` [[R-(E)]-3-(6-methoxy-3-pentylindene-2-yl)-N-[1-methyl-4-(3-pyridinyl)butyl]-2-propenamide], the inhibition in vivo at 1 mg/kg in assay [2] is 96%. Moreover, in assay [3], the IC50 is 33 nM.

On to `CCCCC1=C(/C=C/C(=O)N[C@H](C)CCCc2cccnc2)CCc2cc(OC)ccc21` [[R-(E)]-3-(1-Butyl-3,4-dihydro-6-methoxy-2-naphthalenyl)-N-[1-methyl-4-(3-pyridinyl)butyl]-2-propenamide], for which the inhibition in vivo at 1 mg/kg in assay [2] was determined as 94 ± 2%.

Regarding `COc1cccc(-c2c(/C=C/C(=O)NCCCCc3cccnc3)ccc3ccc(OC)cc23)c1` [(E)-3-[7-methoxy-1-(3-methoxyphenyl)-2-naphthalenyl]-N-[4-(3-pyridinyl)butyl]-2-propenamide], the inhibition in vivo at 1 mg/kg in assay [2] came out at 62%. In addition, the IC50 in assay [3] is 8 nM.

For `CCCCc1c(/C=C/C(=O)N[C@H](C)CCCc2cccnc2)ccc2c(OC)cccc12` [[R-(E)]-3-(1-Butyl-5-methoxy-2-naphthalenyl)-N-[1-methyl-4-(3-pyridinyl)butyl]-2-propenamide], in assay [2], the inhibition in vivo at 1 mg/kg amounted to 50%. For the same compound, the IC50 in assay [3] was found to be 6 nM.

Turning to `CCCCc1c(/C=C/C(=O)N[C@H](C)CCCc2cccnc2)ccc2cc(OC)ccc12` [[R-(E)]-3-(1-Butyl-6-methoxy-2-naphthalenyl)-N-[1-methyl-4-(3-pyridinyl)butyl]-2-propenamide], the inhibition in vivo at 1 mg/kg in assay [2] is 95 ± 1%. Also, the IC50 in assay [3] came to 7 nM.

Regarding `COc1ccc(-c2c(/C=C/C(=O)N[C@H](C)CCCc3cccnc3)ccc3cc(OC)ccc23)cc1` [[R-(E)]-3-[6-Methoxy-1-(4-methoxyphenyl)-2-naphthalenyl]-N-[1-methyl-4-(3-pyridinyl)butyl]-2-propenamide], the inhibition in vivo at 1 mg/kg in assay [2] came to 92%. Also, in assay [3], the IC50 turned out to be 55 nM.

`CCCCc1c(/C=C/C(=O)N[C@H](C)CCCc2cccnc2)cc(OC)c2ccc(OC)cc12` [[R-(E)]-3-(1-Butyl-4,7-dimethoxy-2-naphthalenyl)-N-[1-methyl-4-(3-pyridinyl)butyl]-2-propenamide]: the inhibition in vivo at 1 mg/kg in assay [2] was found to be 80%. Further, the IC50 in assay [3] was found to be 3 nM.

`O=C(CCC=C(c1ccc(F)cc1)c1ccc(F)cc1)NCCCCc1cccnc1` [5,5-bis(4-fluorophenyl)-N-[4-(3-pyridinyl)butyl]-4-pentenamide]: in assay [1], the IC50 lay within 1000 to 10000 nM.

On to `O=C(CC=C(c1ccccc1)c1ccccc1)NCCCCc1cccnc1` [4,4-Diphenyl-N-[4-(3-pyridinyl)butyl]-3-butenamide], for which the IC50 in assay [1] stood at 1000 nM.

Take `O=C(C=C(c1ccccc1)c1ccccc1)NCCCCc1cccnc1` [3,3-Diphenyl-N-[4-(3-pyridinyl)butyl]-2-propenamide]: the IC50 in assay [1] lay within 100 to 1000 nM.

As to `O=C(CCC=C(c1ccccc1)c1ccccc1)NCCCCc1cccnc1` [5,5-Diphenyl-N-[4-(3-pyridinyl)butyl]-4-pentenamide], the IC50 in assay [1] fell in the range of 100 to 1000 nM.

For `O=C(CCCC=C(c1ccccc1)c1ccccc1)NCCCCc1cccnc1` [6,6-Diphenyl-N-[4-(3-pyridinyl)butyl]-5-hexenamide], in assay [1], the IC50 amounted to 100 nM.

On to `COc1ccc(C(=CCCC(=O)NCCCCc2cccnc2)c2ccc(OC)cc2)cc1` [5,5-bis(4-methoxyphenyl)-N-[4-(3-pyridinyl)butyl]-4-pentenamide], for which the IC50 in assay [1] was in the range of 1000 to 10000 nM.

One may read the inhibition in vivo as the drop in the measured response relative to a control, in per cent.
